One series concerns hRV-2. The series can be described thus: Rhinovirus type 2 antiviral assay in Hela Rh cells, MTS readout. Format: cell-based, Human rhinovirus. To be noted: Rhinovirus A, HRV2, HeLa Rh, Hela Rh cells; read-out: hRV-2 EC50.
In another series the test system is hRV-9. Briefly: Rhinovirus type 9 antiviral assay in Hela Rh cells, MTS readout. Format: cell-based, Human rhinovirus. To be noted: Human rhinovirus sp., HRV9, HeLa Rh, Hela Rh cells; read-out: hRV-9 EC50.
For the next series, the system named is hRV-14. Briefly: Rhinovirus type 14 antiviral assay in Hela Rh cells, MTS readout. In kind it is cell-based, Human rhinovirus. To be noted: Rhinovirus B, HRV14, HeLa Rh, Hela Rh cells; read-out: hRV-14 EC50.
For the next series, the system named is hRV-15. Briefly: Rhinovirus type 15 antiviral assay in Hela Rh cells, MTS readout. Conditions: Human rhinovirus sp., HRV15, HeLa Rh, Hela Rh cells; read-out: hRV-15 EC50. Format: cell-based, Human rhinovirus.
A further series deals with hRV-29. Briefly: Rhinovirus type 29 antiviral assay in Hela Rh cells, MTS readout. Format: cell-based. Conditions: Human rhinovirus sp., HRV29, HeLa Rh, Hela Rh cells; read-out: hRV-29 EC50.
For another series, the system named is hRV-39. Briefly: Rhinovirus type 39 antiviral assay in Hela Rh cells, MTS readout. In kind it is cell-based, Human rhinovirus. To be noted: Human rhinovirus sp., HRV39, HeLa Rh, Hela Rh cells; read-out: hRV-39 EC50.
For the next series, the system named is hRV-41. The series can be described thus: Rhinovirus type 41 antiviral assay in Hela Rh cells, MTS readout. In kind it is cell-based, Human rhinovirus. Conditions: Human rhinovirus sp., HRV41, HeLa Rh, Hela Rh cells; read-out: hRV-41 EC50.
Another series relates to hRV-42. Briefly: Rhinovirus type 42 antiviral assay in Hela Rh cells, MTS readout. Format: cell-based, Human rhinovirus. Conditions: Human rhinovirus sp., HRV42, HeLa Rh, Hela Rh cells; read-out: hRV-42 EC50.
The next series has as its system hRV-45. Briefly: Rhinovirus type 45 antiviral assay in Hela Rh cells, MTS readout. To be noted: Human rhinovirus sp., HRV45, HeLa Rh, Hela Rh cells; read-out: hRV-45 EC50. Format: cell-based, Human rhinovirus.
A further series concerns hRV-63. The series can be described thus: Rhinovirus type 63 antiviral assay in Hela Rh cells, MTS readout. In kind it is cell-based, Human rhinovirus. To be noted: Human rhinovirus sp., HRV63, HeLa Rh, Hela Rh cells; read-out: hRV-63 EC50.
In a further series the test system is hRV-70. The series can be described thus: Rhinovirus type 70 antiviral assay in Hela Rh cells, MTS readout. In kind it is cell-based, Human rhinovirus. To be noted: Human rhinovirus sp., HRV70, HeLa Rh, Hela Rh cells; read-out: hRV-70 EC50.
A further series has as its system hRV-72. Briefly: Rhinovirus type 72 antiviral assay in Hela Rh cells, MTS readout. Conditions: Human rhinovirus sp., HRV72, HeLa Rh, Hela Rh cells; read-out: hRV-72 EC50. In kind it is cell-based, Human rhinovirus.
The subject of another series is hRV-85. Briefly: Rhinovirus type 85 antiviral assay in Hela Rh cells, MTS readout. In kind it is cell-based, Human rhinovirus. To be noted: Human rhinovirus sp., HRV85, HeLa Rh, Hela Rh cells; read-out: hRV-85 EC50.
The subject of a further series is hRV-86. Briefly: Rhinovirus type 86 antiviral assay in Hela Rh cells, MTS readout. Format: cell-based, Human rhinovirus. Conditions: Human rhinovirus sp., HRV86, HeLa Rh, Hela Rh cells; read-out: hRV-86 EC50.
A short description of series [1]: Cytostatic/cytotoxic effect in Hela Rh cells (rhinovirus methodology, MTS). To be noted: human, CC50, Hela Rh cells.

In US9730944B2, “Antiviral activity of novel bicyclic heterocycles” (priority 2010, dated 2017) one finds EC50 and CC50 data, which are given here for seven compounds.

The term EC50 denotes the midpoint of the concentration-response curve. Usually CC50 stands for the concentration that lowers cell viability or growth by half. A high value points to better tolerance by the cells.

The structures appear in SMILES notation. Converted amounts (≈) assume the structure as drawn.

Take `CCCCCc1nc2c(N3CCN(C(=O)COc4ccc(OC)cc4)CC3)nc(N)nc2s1` [Example 296, 1-(4-(5-amino-2-pentylthiazolo[5,4-d]pyrimidin-7-yl)piperazin-1-yl)-2-(4-methoxyphenoxy)ethanone]: the EC50 came to 0.19 µg/mL (≈ 0.404 µM) with hRV-2; 0.2 µg/mL (≈ 0.425 µM) with hRV-9; 9.93 µg/mL (≈ 21.1 µM) in the series with hRV-14; 0.44 µg/mL (≈ 0.935 µM) in the series on hRV-15; 0.09 µg/mL (≈ 0.191 µM) in the series with hRV-29; 0.04 µg/mL (≈ 0.085 µM) in the series on hRV-39. The EC50 worked out at 7.02 µg/mL (≈ 14.9 µM) in the series with hRV-41; 4.25 µg/mL (≈ 9.03 µM) in the series with hRV-42; 4.13 µg/mL (≈ 8.78 µM) with hRV-45; 0.71 µg/mL (≈ 1.51 µM) in the series with hRV-63; 2.53 µg/mL (≈ 5.38 µM) in the series with hRV-70; 26.5 µg/mL (≈ 56.3 µM) in the series on hRV-72. The half-maximal effective concentration (EC50) in the series with hRV-85 stood at 0.64 µg/mL (≈ 1.36 µM); with hRV-86, 17.8 µg/mL (≈ 37.7 µM). Also, the CC50 in series [1] was over 50 µg/mL.

On to `Nc1nc(N2CCN(C(=O)COc3ccc(Br)cc3)CC2)c2nc(-c3ccc(F)cc3)sc2n1` [Example 235, 1-(4-(5-amino-2-(4-fluorophenyl)thiazolo[5,4-d]pyrimidin-7-yl)piperazin-1-yl)-2-(4-bromophenoxy)ethanone], for which the EC50 with hRV-2 was under 0.02 µg/mL; in the series with hRV-9, under 0.02 µg/mL; in the series on hRV-14, 0.04 µg/mL (≈ 0.0736 µM); with hRV-15 it was under 0.02 µg/mL; in the series with hRV-29, under 0.02 µg/mL; with hRV-39, under 0.02 µg/mL. Also, the EC50 in the series with hRV-41 was under 0.39 µg/mL; in the series on hRV-42, under 0.39 µg/mL; with hRV-45 it was under 0.39 µg/mL; with hRV-63, under 0.39 µg/mL; in the series on hRV-70, under 0.39 µg/mL; in the series on hRV-72 it was 0.65 µg/mL (≈ 1.2 µM). The EC50 is under 0.39 µg/mL in the series on hRV-85 and 0.58 µg/mL (≈ 1.07 µM) in the series on hRV-86. In addition, in series [1], the half-maximal cytotoxic concentration (CC50) is over 50 µg/mL.

As to `CC(=O)c1ccc(OCC(=O)N2CCN(c3nc(N)nc4sc(CCc5ccc(F)cc5)nc34)CC2)cc1` [Example 227, 2-(4-acetylphenoxy)-1-(4-(5-amino-2-(4-fluorophenethyl)thiazolo[5,4-d]pyrimidin-7-yl)piperazin-1-yl)ethanone], the 50% effective concentration (EC50) was 0.26 µg/mL (≈ 0.486 µM) with hRV-2; 0.56 µg/mL (≈ 1.05 µM) in the series with hRV-9; over 50 µg/mL in the series on hRV-14; over 50 µg/mL in the series on hRV-15; 4.8 µg/mL (≈ 8.98 µM) in the series on hRV-29; 0.3 µg/mL (≈ 0.561 µM) in the series on hRV-39. Further, the EC50 in the series with hRV-41 was over 50 µg/mL; in the series with hRV-42, over 50 µg/mL; in the series with hRV-45, 35.4 µg/mL (≈ 66.1 µM); in the series with hRV-63, 30.6 µg/mL (≈ 57.2 µM); with hRV-70, over 50 µg/mL; in the series on hRV-72 it was over 50 µg/mL. Also, the EC50 came to 2.19 µg/mL (≈ 4.1 µM) with hRV-85 and 4.59 µg/mL (≈ 8.59 µM) with hRV-86. The same compound gave a half-maximal cytotoxic concentration (CC50) in series [1] of over 50 µg/mL.

`COC(=O)c1ccc(OCC(=O)N2CCN(c3nc(N)nc4sc(CCc5ccc(F)cc5)nc34)CC2)cc1` [Example 225, methyl 4-(2-(4-(5-amino-2-(4-fluorophenethyl)thiazolo[5,4-d]pyrimidin-7-yl)piperazin-1-yl)-2-oxoethoxy)benzoate]: the concentration giving a half-maximal response (EC50) with hRV-2 is 1.12 µg/mL (≈ 2.03 µM); in the series with hRV-9, over 50 µg/mL; in the series on hRV-14, over 50 µg/mL; in the series with hRV-15, over 50 µg/mL; in the series with hRV-29, over 50 µg/mL; with hRV-39, over 50 µg/mL. The EC50 is over 50 µg/mL in the series with hRV-41; over 50 µg/mL in the series on hRV-42; 43.1 µg/mL (≈ 78.3 µM) in the series with hRV-45; 39.7 µg/mL (≈ 72.1 µM) in the series on hRV-63; over 50 µg/mL in the series on hRV-70; over 50 µg/mL in the series on hRV-72. The results for the EC50 in the series with hRV-85 and in the series with hRV-86 were 14.6 µg/mL (≈ 26.5 µM) and over 50 µg/mL, respectively. Half-maximal cytotoxicity in series [1] (CC50) was put at 5.34 µg/mL (≈ 9.7 µM).

As for `Nc1nc(N2CCN(C(=O)COc3ccc(Cl)cc3)CC2)c2nc(CCCCc3ccc(F)cc3)sc2n1` [Example 292, 1-(4-(5-amino-2-(4-(4-fluorophenyl)butyl)thiazolo[5,4-d]pyrimidin-7-yl)piperazin-1-yl)-2-(4-chlorophenoxy)ethanone], the EC50 in the series on hRV-2 was 13.6 µg/mL (≈ 24.6 µM); in the series with hRV-9, over 50 µg/mL; with hRV-14 it was over 50 µg/mL; in the series on hRV-15, over 50 µg/mL; in the series with hRV-29 it was over 50 µg/mL; in the series on hRV-39, 39.4 µg/mL (≈ 70.9 µM). The concentration for a half-maximal effect (EC50) with hRV-41, in the series on hRV-42, in the series on hRV-45, in the series on hRV-63, with hRV-70 and in the series on hRV-72 was over 50 µg/mL throughout. In addition, the EC50 is 10.3 µg/mL (≈ 18.6 µM) in the series with hRV-85 and over 50 µg/mL in the series with hRV-86. The CC50 in [1] is over 50 µg/mL.

Consider `Nc1nc(N2CCN(C(=O)COc3ccc(O)cc3)CC2)c2nc(CCc3ccc(F)cc3)sc2n1` [Example 224, 1-(4-(5-amino-2-(4-fluorophenethyl)thiazolo[5,4-d]pyrimidin-7-yl)piperazin-1-yl)-2-(4-hydroxyphenoxy)ethanone], for which the EC50 with hRV-2 amounted to 0.66 µg/mL (≈ 1.3 µM); in the series with hRV-9, 0.89 µg/mL (≈ 1.75 µM); in the series with hRV-14, 3.44 µg/mL (≈ 6.76 µM); in the series on hRV-15, 2.32 µg/mL (≈ 4.56 µM); in the series on hRV-29, 0.49 µg/mL (≈ 0.963 µM); in the series on hRV-39, 0.32 µg/mL (≈ 0.629 µM). For the same compound, the EC50 in the series on hRV-41 was 2.26 µg/mL (≈ 4.44 µM); in the series on hRV-42, over 50 µg/mL; with hRV-45, 4.55 µg/mL (≈ 8.95 µM); in the series with hRV-63, 25.4 µg/mL (≈ 49.8 µM); with hRV-70 it was 8.62 µg/mL (≈ 16.9 µM); with hRV-72, over 50 µg/mL. Also, the concentration giving a half-maximal response (EC50) in the series with hRV-85 came to 2.09 µg/mL (≈ 4.11 µM); in the series with hRV-86 it was 20 µg/mL (≈ 39.4 µM). Also, the CC50 in [1] is over 50 µg/mL.

As to `COc1cccc(CCc2nc3c(N4CCN(C(=O)COc5ccc(Cl)cc5)CC4)nc(N)nc3s2)c1` [Example 255, 1-(4-(5-amino-2-(3-methoxyphenethyl)thiazolo[5,4-d]pyrimidin-7-yl)piperazin-1-yl)-2-(4-chlorophenoxy)ethanone], the EC50 in the series with hRV-2 came out at 0.65 µg/mL (≈ 1.21 µM); in the series on hRV-9, 0.52 µg/mL (≈ 0.965 µM); in the series with hRV-14, 0.53 µg/mL (≈ 0.983 µM); with hRV-15, 1.82 µg/mL (≈ 3.38 µM); with hRV-29, 0.6 µg/mL (≈ 1.11 µM); in the series with hRV-39 it was 0.5 µg/mL (≈ 0.928 µM). Besides, the EC50 in the series on hRV-41 was 20.8 µg/mL (≈ 38.6 µM); in the series with hRV-42, 1.1 µg/mL (≈ 2.04 µM); with hRV-45, 2.34 µg/mL (≈ 4.34 µM); in the series with hRV-63, 3.31 µg/mL (≈ 6.14 µM); with hRV-70, 4.02 µg/mL (≈ 7.46 µM); in the series on hRV-72, over 50 µg/mL. For the same compound, the EC50 in the series on hRV-85 is 2.18 µg/mL (≈ 4.04 µM); in the series with hRV-86, 2.61 µg/mL (≈ 4.84 µM). Besides, in series [1], the CC50 was over 50 µg/mL.
